{
  "source": "paper PMC6026642",
  "about": "(Frontiers in Chemistry, 2018)",
  "key": {"PRV": {"test_system": "PRV", "format": "cell-based, pseudorabies virus", "settings": "TCID50 based, R = A2/A1 × 100%; 50 μg/ml peptide (method says 50 μM, 1 h incubation); Vero and PK-15 cells; mean"}, "PEDV": {"test_system": "PEDV", "format": "cell-based, porcine epidemic diarrhea virus"}, "[1]": {"settings": "rat, in vivo, 2 mg/kg"}, "in vivo": {"assay": "in vivo", "settings": "both, Wistar, rat, 2 mg/kg"}},
  "note": "Read-outs that look alike come from different tables or passages of the source. No end group written: not given here.",
  "data": [
    {"sequence": "FKCRRWQWRMKKLGAPSITCVRRAF [lactoferricin]", "values": [
      {"measurement": "virus survived ratio of PRV", "setting": "PRV", "value": 82, "unit": "%"},
      {"measurement": "virus survived ratio of PEDV", "setting": "PEDV", "value": 93, "unit": "%"}
    ]},
    {"sequence": "FFHHIFRGIVHVGKTIHRLVTG [Piscidin 1]", "values": [
      {"measurement": "AUC0−∞", "setting": "[1]", "value": "78.40 ± 8.64", "unit": "µg·h/g"},
      {"measurement": "CLb (body clearance)", "setting": "[1]", "value": "0.433 ± 0.13", "unit": "mL/min/kg"},
      {"measurement": "Cmax", "setting": "[1]", "value": "1.67 ± 0.19", "unit": "µg/g"},
      {"measurement": "Ke (elimination rate constant)", "setting": "[1]", "value": "0.034 ± 0.06", "unit": "h⁻¹"},
      {"measurement": "MRT", "setting": "[1]", "value": "36.45 ± 2.45", "unit": "h"},
      {"measurement": "Ratio of AUC0−∞, ileum content / serum", "setting": "[1]", "value": 4.14},
      {"measurement": "Ratio of CLb, ileum content / serum", "setting": "[1]", "value": 0.273},
      {"measurement": "Ratio of Cmax, ileum content / serum", "setting": "[1]", "value": 0.71},
      {"measurement": "Ratio of Ke, ileum content / serum", "setting": "[1]", "value": 1.17},
      {"measurement": "Ratio of MRT, ileum content / serum", "setting": "[1]", "value": 1.21},
      {"measurement": "Ratio of T1/2, ileum content / serum", "setting": "[1]", "value": 0.858},
      {"measurement": "Ratio of Tmax, ileum content / serum", "setting": "[1]", "value": 24.38},
      {"measurement": "T1/2 (elimination half-life)", "setting": "[1]", "value": "20.16 ± 1.76", "unit": "h"},
      {"measurement": "Tmax", "setting": "[1]", "value": "8.12 ± 1.02", "unit": "h"},
      {"measurement": "AUC(0-inf)", "setting": "in vivo; im", "value": "19000 ± 1370", "unit": "ng·h/mL"},
      {"measurement": "Cmax", "setting": "in vivo; im", "value": "2370 ± 160", "unit": "ng/mL"},
      {"measurement": "MRT", "setting": "in vivo; im", "value": "30.1 ± 2.46", "unit": "h"},
      {"measurement": "Tmax", "setting": "in vivo; im", "value": "0.333 ± 0.151", "unit": "h"},
      {"measurement": "bioavailability", "setting": "in vivo; im", "value": 73.2, "unit": "%"},
      {"measurement": "half-life", "setting": "in vivo; im", "value": "23.5 ± 2.43", "unit": "h"},
      {"measurement": "AUC(0-inf)", "setting": "in vivo; iv", "value": "25900 ± 3210", "unit": "ng·h/mL"},
      {"measurement": "MRT", "setting": "in vivo; iv", "value": "22.8 ± 2.43", "unit": "h"},
      {"measurement": "clearance", "setting": "in vivo; iv", "value": 1.12, "unit": "mL/min/kg"},
      {"measurement": "half-life", "setting": "in vivo; iv", "value": "17 ± 1.43", "unit": "h"},
      {"measurement": "AUC(0-inf)", "setting": "in vivo; po", "value": "9630 ± 870", "unit": "ng·h/mL"},
      {"measurement": "Cmax", "setting": "in vivo; po", "value": "730 ± 80", "unit": "ng/mL"},
      {"measurement": "MRT", "setting": "in vivo; po", "value": "26.8 ± 2.89", "unit": "h"},
      {"measurement": "Tmax", "setting": "in vivo; po", "value": "0.5 ± 0.23", "unit": "h"},
      {"measurement": "bioavailability", "setting": "in vivo; po", "value": 37.2, "unit": "%"},
      {"measurement": "half-life", "setting": "in vivo; po", "value": "19.5 ± 1.67", "unit": "h"}
    ]}
  ]
}
